Paper PMC5762908 (Scientific Reports, 2018)
Where two headings read alike, the source gives them in different places.

Tests used:
[1] = tested on: WT SV40 MEF (wild-type immortalized mouse embryonic fibroblast); assay: Cytotoxic activity, alamar blue assay, WT SV40 MEF; format: cell-based; settings: 72 h incubation
advanced CRC = settings: cited from earlier work
[2] = tested on: MRC-5 (human lung fibroblast); assay: Cytotoxic activity, alamar blue assay, MRC-5 non-cancer cells; format: cell-based
[3] = tested on: BAD KO SV40 MEF (BAD gene knockout immortalized mouse embryonic fibroblast); assay: Cytotoxic activity, alamar blue assay, BAD KO SV40 MEF; format: cell-based; settings: 72 h incubation
[4] = tested on: PBMC (human peripheral blood mononuclear cells); assay: Cytotoxic activity, alamar blue assay, PBMC non-cancer cells; format: cell-based; settings: 72 h incubation
calf thymus DNA (ctDNA) = assay: DNA intercalation assay, ethidium bromide displacement; format: binding; settings: complex 5, 10 and 20 µM; doxorubicin 10 µM; data not shown
Description: DNA intercalation was assessed by examining the ability of the complex to displace ethidium bromide from ctDNA (Sigma-Aldrich Co.)[32]. The DNA intercalation assay was conducted in 96-well plate (100 µL) and contained 15 µg/mL ctDNA, 1.5 µM ethidium bromide and 5, 10 and 20 µM of complex in saline solution. The vehicle (0.1% DMSO) used for diluting the compound tested was used as the negative control. Doxorubicin (10 µM) was used as the positive control. Fluorescence was measured using excitation and emission wavelengths of 320 nm and 600 nm, respectively using the spectraMax Microplate Reader (Molecular Devices).

[5] = Homo sapiens, MRC5, 72 h incubation

Row | Molecule | IC50 ([1]; Mus musculus, Fibroblast) | Response rates (advanced CRC; 5-FU as a monotherapy) | Response rates (advanced CRC; 5-FU combined with irinotecan and oxaliplatin) | IC50 [2, 5] | IC50 ([3]; Mus musculus, Fibroblast) | IC50 ([4]; Homo sapiens, PBMC) | Ethidium bromide fluorescence (displacement from ctDNA) (calf thymus DNA (ctDNA)) | IC50 ([2]; 72 h incubation) | IC50 [4] | IC50 [1] | IC50 [3]
1 | O=c1[nH]cc(F)c(=O)[nH]1 [5-FU, 5-fluorouracil] | 1.7 µM | 10–15% | 40–50% | 57.9 µM | 7.3 µM | 78 µM |  |  |  |  | 
2 | COc1cccc2c1C(=O)c1c(O)c3c(c(O)c1C2=O)C[C@@](O)(C(=O)CO)C[C@@H]3O[C@H]1C[C@H](N)[C@H](O)[C@H](C)O1 [DOX, Doxorubicin] | 0.03 µM |  |  | 1.6 µM | 0.4 µM | 5.1 µM | reduced the fluorescence intensity of ethidium bromide |  |  |  | 
3 | O=C1[O][Pt]2([NH][C@@H]3CCCC[C@H]3[NH]2)[O]C1=O [OXA, oxaliplatin] |  |  |  |  |  |  |  | 1.4 µM | 12.4 µM |  | 
4 | [Ru(5-FU)(PPh3)2(bipy)]PF6 [RU/5-FU] |  |  |  |  |  |  | did not decrease the ethidium bromide fluorescence | 9.5 µM | 5.7 µM | 1.9 µM | 1.8 µM
